Measurements published in patent publication US20080014614A1, “Labeling of rapamycin using rapamycin-specific methylases” (Wyeth, priority 2004, published 2008).

System: RapM methylase
Test: In vitro methylation of desmethyl-rapamycin substrates by recombinant RapM methylase crude extract, HPLC analysis
Format: biochemical, Streptomyces hygroscopicus
Details: recombinant E. coli cell extract, SAM as methyl donor, phosphate buffer pH 7.5, HPLC chromatograms
Experimental: The RapI, RapM and RapQ proteins were then expressed in E. coli strain BL21(DE3) cells using the Novagen pET24 inducible plasmid expression vector. In this vector, cloned genes are expressed from a T7 promoter by T7 RNA polymerase, and expression is activated by IPTG addition.
For crude extracts of the cloned methylase proteins, 25 mL cultures of induced cells were collected by centrifugation and the pellets frozen. The pellets were resuspended in 10 mL 50 mM potassium phosphate buffer, pH 7.5, containing 1 mM β-mercaptoethanol. Thereafter, lysozyme was added to a final concentration of 100 μg/ml and Benzonase™ nuclease was added (1 μL/mL cells). Cells were sonicated for 1 to 2 min on ice and cell debris was removed by centrifugation at ˜30,000×g, 4° C. for 15 min. Supernatants were adjusted to ˜10% glycerol prior to freezing at −70° C.
Approximately 65 μL of crude methylase extract was added to a reaction containing 3 μL of 1 mg/mL 7-desmethyl- rapamycin (7-dmr) solution, 5 μL of 4 mM SAM, 4 μL of 0.1 M MgSO4, and 23 μL of a 0.5 M phosphate buffer, adjusted to pH 7.5. Methylation reactions using the recombinant cell extracts were carried out as described above, except that 50 μL of extract and 38 μL of buffer were used.

Molecule	Conversion of the desmethyl-rapamycin substrate to rapamycin by RapM methylase (substrate specificity)
32-O-desmethyl-rapamycin [32-dmr]	did not modify
CO[C@@H]1C[C@H](C[C@@H](C)[C@@H]2CC(=O)[C@H](C)/C=C(\C)[C@@H](O)[C@@H](OC)C(=O)[C@H](C)C[C@H](C)\C=C/C=C/C=C(\C)[C@@H](O)C[C@@H]3CC[C@@H](C)[C@@](O)(O3)C(=O)C(=O)N3CCCC[C@H]3C(=O)O2)CC[C@H]1O [7-dmr, 7-O-desmethyl-rapamycin]	generated rapamycin
